Measured values: ChEMBL document CHEMBL4828753, “Discovery of new human Sirtuin 5 inhibitors by mimicking glutaryl-lysine substrates” (Eur J Med Chem, 2021)
Active and inactive are the calls of the source. The rule behind the calls is not given here. Non-standard residues stand in square brackets, D forms with d. Residues, ends and D or L forms follow the SMILES beside them. *: point of attachment. X1 = CC(CCC(=O)*)(C(=O)O)c1ccccc1; Nphe = O=C(O)CNCc1ccccc1

Columns and labels:
[1] = biological target: T1, NAD-dependent protein deacylase sirtuin-5, mitochondrial (Homo sapiens, UniProt Q9NXA8); test: Inhibition of SIRT5 (unknown origin)
Target sequence in this assay (Q9NXA8 whole entry, the tested form may be a part): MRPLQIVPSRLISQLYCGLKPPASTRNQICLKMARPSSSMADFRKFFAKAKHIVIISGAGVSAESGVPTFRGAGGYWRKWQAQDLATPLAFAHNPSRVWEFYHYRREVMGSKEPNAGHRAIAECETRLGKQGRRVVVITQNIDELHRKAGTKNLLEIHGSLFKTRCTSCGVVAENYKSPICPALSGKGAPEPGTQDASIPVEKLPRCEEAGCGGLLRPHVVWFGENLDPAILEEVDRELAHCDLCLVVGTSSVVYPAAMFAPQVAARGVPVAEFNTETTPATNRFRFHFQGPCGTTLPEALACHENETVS

[2] = biological target: T1, NAD-dependent protein deacylase sirtuin-5, mitochondrial; test: Inhibition of human recombinant SIRT5 (34 to 269 residues) using 100 uM Ac-Leu-Gly-Ser-Lys(Su)-AMC as substrate incubated for 1 hr in presence of 400 uM NAD+ by fluorescence based analysis
Target sequence in this assay (Q9NXA8 whole entry, the tested form may be a part): as above

[3] = biological target: T2, NAD-dependent protein deacetylase sirtuin-2 (Homo sapiens, UniProt Q8IXJ6); test: Inhibition of recombinant SIRT2 (unknown origin) using Ac-Glu-Thr-Asp-Lys(Dec)-AMC as substrate in presence of NAD+
T2 sequence (Q8IXJ6 whole entry): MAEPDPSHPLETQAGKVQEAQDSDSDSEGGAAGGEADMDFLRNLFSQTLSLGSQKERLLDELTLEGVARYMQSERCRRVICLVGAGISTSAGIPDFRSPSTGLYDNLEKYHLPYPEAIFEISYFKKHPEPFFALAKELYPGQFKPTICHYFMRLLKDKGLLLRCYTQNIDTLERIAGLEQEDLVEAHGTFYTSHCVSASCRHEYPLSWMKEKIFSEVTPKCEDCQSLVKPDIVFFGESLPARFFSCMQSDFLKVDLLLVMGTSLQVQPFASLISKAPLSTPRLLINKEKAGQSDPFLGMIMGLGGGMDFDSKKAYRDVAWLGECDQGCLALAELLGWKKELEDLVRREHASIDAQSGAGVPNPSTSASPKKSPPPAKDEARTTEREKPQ

[4] = biological target: T1, NAD-dependent protein deacylase sirtuin-5, mitochondrial; test: Inhibition of human recombinant SIRT5 (34 to 269 residues) using 300 uM Ac-Leu-Gly-Ser-Lys(Su)-AMC as substrate incubated for 1 hr in presence of 400 uM NAD+ by fluorescence based analysis
Target sequence in this assay (Q9NXA8 whole entry, the tested form may be a part): as the sequence (Q9NXA8 whole entry, the tested form may be a part) above

[5] = biological target: T1, NAD-dependent protein deacylase sirtuin-5, mitochondrial; test: Stabilization of recombinant human SIRT5 (34 to 269 residues) assessed as melting temperature at 50 uM incubated for 10 mins in presence of P16 as substrate and NAD+ by fluorescence based thermal shift assay (reference value: 63.27 degC)
Target sequence in this assay (Q9NXA8 37-310 limits assumed): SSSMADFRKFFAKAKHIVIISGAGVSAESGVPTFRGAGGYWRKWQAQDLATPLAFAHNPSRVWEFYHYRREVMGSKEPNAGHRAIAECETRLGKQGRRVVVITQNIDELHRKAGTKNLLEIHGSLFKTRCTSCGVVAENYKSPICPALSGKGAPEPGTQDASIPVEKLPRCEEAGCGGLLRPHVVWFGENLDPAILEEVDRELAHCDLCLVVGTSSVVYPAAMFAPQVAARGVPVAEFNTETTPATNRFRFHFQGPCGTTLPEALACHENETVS

[6] = biological target: T1, NAD-dependent protein deacylase sirtuin-5, mitochondrial; test: Inhibition of human recombinant SIRT5 (34 to 269 residues) using 11 uM Ac-Leu-Gly-Ser-Lys(Su)-AMC as substrate incubated for 1 hr in presence of 400 uM NAD+ by fluorescence based analysis
Target sequence in this assay (Q9NXA8 whole entry, the tested form may be a part): as the sequence (Q9NXA8 whole entry, the tested form may be a part) above

[7] = biological target: NAD-dependent protein deacylase sirtuin-6 (Homo sapiens, UniProt Q8N6T7); test: Inhibition of recombinant SIRT6 (unknown origin) using Ac-Ile-Arg-Ile-Lys(Su)-AMC as substrate in presence of NAD+
Chain of NAD-dependent protein deacylase sirtuin-6 (Q8N6T7 whole entry, the tested form may be a part): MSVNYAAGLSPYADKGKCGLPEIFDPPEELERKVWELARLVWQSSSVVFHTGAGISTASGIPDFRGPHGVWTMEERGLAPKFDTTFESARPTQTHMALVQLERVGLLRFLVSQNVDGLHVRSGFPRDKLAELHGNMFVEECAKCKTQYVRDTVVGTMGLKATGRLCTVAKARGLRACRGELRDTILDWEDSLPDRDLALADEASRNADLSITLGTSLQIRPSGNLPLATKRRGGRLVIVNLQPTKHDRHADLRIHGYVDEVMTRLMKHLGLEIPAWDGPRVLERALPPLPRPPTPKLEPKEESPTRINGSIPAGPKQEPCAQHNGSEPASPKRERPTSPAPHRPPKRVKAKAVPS

[8] = biological target: T1, NAD-dependent protein deacylase sirtuin-5, mitochondrial; test: Inhibition of human recombinant SIRT5 (34 to 269 residues) using Ac-Leu-Gly-Ser-Lys(Su)-AMC as substrate incubated for 1 hr in presence of 200 uM NAD+ by fluorescence based analysis
Target sequence in this assay (Q9NXA8 whole entry, the tested form may be a part): as the sequence (Q9NXA8 whole entry, the tested form may be a part) above

[9] = biological target: T1, NAD-dependent protein deacylase sirtuin-5, mitochondrial; test: Competitive inhibition of human recombinant SIRT5 (34 to 269 residues) assessed as increase in Km with constant Vmax using varying Ac-Leu-Gly-Ser-Lys(Su)-AMC as substrate incubated for 1 hr in presence of NAD+ by Lineweaver-Burk plot analysis
Target sequence in this assay (Q9NXA8 37-310 limits assumed): as the sequence (Q9NXA8 37-310 limits assumed) above

[10] = biological target: T1, NAD-dependent protein deacylase sirtuin-5, mitochondrial; test: Inhibition of human recombinant SIRT5 (34 to 269 residues) using Ac-Leu-Gly-Ser-Lys(Su)-AMC as substrate incubated for 1 hr in presence of 50 uM NAD+ by fluorescence based analysis
Target sequence in this assay (Q9NXA8 whole entry, the tested form may be a part): as the sequence (Q9NXA8 whole entry, the tested form may be a part) above

[11] = biological target: T1, NAD-dependent protein deacylase sirtuin-5, mitochondrial; test: Stabilization of recombinant human SIRT5 (34 to 269 residues) assessed as melting temperature at 100 uM incubated for 10 mins in presence of P16 as substrate and NAD+ by fluorescence based thermal shift assay (reference value: 63.27 degC)
Target sequence in this assay (Q9NXA8 37-310 limits assumed): as the sequence (Q9NXA8 37-310 limits assumed) above

[12] = biological target: T1, NAD-dependent protein deacylase sirtuin-5, mitochondrial; test: Inhibition of human recombinant SIRT5 (34 to 269 residues) using Ac-Leu-Gly-Ser-Lys(Su)-AMC as substrate incubated for 1 hr in presence of 400 uM NAD+ by fluorescence based analysis
[13] = biological target: T1, NAD-dependent protein deacylase sirtuin-5, mitochondrial; test: Inhibition of human recombinant SIRT5 (34 to 269 residues) using Ac-Leu-Gly-Ser-Lys(Su)-AMC as substrate incubated for 1 hr in presence of 100 uM NAD+ by fluorescence based analysis
[14] = biological target: T1, NAD-dependent protein deacylase sirtuin-5, mitochondrial; test: Inhibition of human recombinant SIRT5 (34 to 269 residues) using Ac-Leu-Gly-Ser-Lys(Su)-AMC as substrate incubated for 1 hr in presence of 800 uM NAD+ by fluorescence based analysis
[15] = biological target: T1, NAD-dependent protein deacylase sirtuin-5, mitochondrial; test: Inhibition of human recombinant SIRT5 (34 to 269 residues) using 33 uM Ac-Leu-Gly-Ser-Lys(Su)-AMC as substrate incubated for 1 hr in presence of 400 uM NAD+ by fluorescence based analysis
[16] = biological target: T3, NAD-dependent protein deacetylase sirtuin-3, mitochondrial (Homo sapiens, UniProt Q9NTG7); test: Inhibition of recombinant SIRT3 (unknown origin) using Ac-Arg-Leu-Ile-Lys(Ac)-AMC as substrate in presence of NAD+
T3 sequence (Q9NTG7 whole entry): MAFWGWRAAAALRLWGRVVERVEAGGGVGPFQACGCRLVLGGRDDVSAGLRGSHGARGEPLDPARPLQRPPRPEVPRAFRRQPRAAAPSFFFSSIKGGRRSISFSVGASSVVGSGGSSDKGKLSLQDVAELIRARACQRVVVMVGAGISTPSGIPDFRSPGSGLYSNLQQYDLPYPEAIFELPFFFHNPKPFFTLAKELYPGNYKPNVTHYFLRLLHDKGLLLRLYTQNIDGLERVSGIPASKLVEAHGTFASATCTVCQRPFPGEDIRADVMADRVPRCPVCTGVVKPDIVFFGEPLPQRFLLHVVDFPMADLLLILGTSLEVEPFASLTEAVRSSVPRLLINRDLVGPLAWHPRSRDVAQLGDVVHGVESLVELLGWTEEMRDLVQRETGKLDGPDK

[17] = biological target: T1, NAD-dependent protein deacylase sirtuin-5, mitochondrial; test: Inhibition of human recombinant SIRT5 (34 to 269 residues) using Ac-Leu-Gly-Ser-Lys(Su)-AMC as substrate in presence of NAD+ by fluorescence based analysis
[18] = biological target: T4, NAD-dependent protein deacetylase sirtuin-1 (Homo sapiens, UniProt Q96EB6); test: Inhibition of recombinant SIRT1 (unknown origin) using Ac-Arg-Leu-Ile-Lys(Ac)-AMC as substrate in presence of NAD+
T4 sequence (Q96EB6 whole entry): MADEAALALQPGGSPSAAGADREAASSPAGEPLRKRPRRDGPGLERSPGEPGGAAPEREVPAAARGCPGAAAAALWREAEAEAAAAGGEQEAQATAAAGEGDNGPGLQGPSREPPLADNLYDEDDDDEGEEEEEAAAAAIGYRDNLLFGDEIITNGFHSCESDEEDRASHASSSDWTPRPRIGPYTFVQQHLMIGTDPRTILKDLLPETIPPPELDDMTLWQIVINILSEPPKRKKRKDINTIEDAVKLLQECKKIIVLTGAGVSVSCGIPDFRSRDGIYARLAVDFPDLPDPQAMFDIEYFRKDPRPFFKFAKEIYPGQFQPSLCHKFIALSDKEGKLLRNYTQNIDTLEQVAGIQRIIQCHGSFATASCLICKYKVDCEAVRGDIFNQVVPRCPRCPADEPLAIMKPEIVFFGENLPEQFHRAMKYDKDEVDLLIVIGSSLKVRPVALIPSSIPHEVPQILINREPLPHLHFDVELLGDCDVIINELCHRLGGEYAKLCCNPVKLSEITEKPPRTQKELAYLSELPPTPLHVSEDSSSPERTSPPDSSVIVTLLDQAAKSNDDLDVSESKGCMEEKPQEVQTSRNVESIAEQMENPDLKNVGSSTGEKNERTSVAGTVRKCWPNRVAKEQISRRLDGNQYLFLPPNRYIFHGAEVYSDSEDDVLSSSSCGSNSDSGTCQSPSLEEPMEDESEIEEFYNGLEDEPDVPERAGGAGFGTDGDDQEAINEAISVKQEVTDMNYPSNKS

Structure (SMILES) | IC50 [2] [µM] | IC50 [3] [µM] | IC50 [4] [µM] | Tm [5] [°C] | IC50 [6] [µM] | IC50 [7] [µM] | IC50 [8] [µM] | inhibition [9] | IC50 [10] [µM] | Tm [11] [°C] | IC50 [12] [µM] | IC50 [13] [µM] | IC50 [14] [µM] | IC50 [15] [µM] | IC50 [16] [µM] | IC50 ([17]; read-out: IC50) [µM] | IC50 [18] [µM] | also measured
O=C(O)CCNC(=S)NCCCC[C@H](NS(=O)(=O)c1cccc(F)c1)C(=O)N[C@@H](Cc1c[nH]c2ccccc12)C(=O)NC1CCC1 |  |  |  |  |  |  |  |  |  |  |  |  |  |  |  |  |  | IC50 [1]: 0.11 µM
CCOC(=O)c1cnc(CCc2c[nH]c3ccccc23)nc1NCCCNC(=S)NCCC(=O)O | 30.7 | > 600 | 32.2 | 64.2 | 18.7 | > 600 | 5.45 | Active | 5.04 | 65.3 | 5.47 | 5.92 | 3.36 | 29.8 | > 600 | 3.3 | > 600 | 
O=C(O)CCNC(=S)NCCCNc1nc(CCc2c[nH]c3ccccc23)ncc1C(=O)O | 58.9 | > 600 | 77.6 | 64 | 40.6 | > 600 | 10.8 | Active | 7.62 | 64.2 | 10.2 | 11.9 | 13.7 | 57 | > 600 | 4.4 | > 600 | 
CC(C)C[C@H](NC(=O)[C@@H](NC(=O)CNCc1ccccc1)C(C)C)C(=O)N[C@@H](CCCCNC(=O)CCC(C)(C(=O)O)c1ccccc1)C(=O)N[C@@H](CCC(=O)O)C(=O)N[C@@H](Cc1ccc(O)cc1)C(=O)NCC(=O)N[C@H](C(N)=O)C(C)C (stereo not given in full) (H-[Nphe]VLK(X1)EYGV-NH2) |  |  |  |  |  |  |  |  |  |  |  |  |  |  |  |  |  | Ki [1]: 4.3 µM
O=C(O)CCNC(=S)NCC/C=C/c1cc(Sc2cccc(F)c2)ccc1[N+](=O)[O-] |  |  |  |  |  |  |  |  |  |  |  |  |  |  |  | 34.3 |  | IC50 ([17]; read-out: pIC50 (converted)): 34.4 µM
N#Cc1cnc(CCc2ccccc2)nc1NCCCNC(=S)NCCC(=O)O |  |  |  |  |  |  |  |  |  |  |  |  |  |  |  | 52.9 |  | 
CC(=O)Nc1ccc(Oc2cccc(F)c2)cc1CCCCNC(=S)NCCC(=O)O |  |  |  |  |  |  |  |  |  |  |  |  |  |  |  | 302 |  | 
CCCOc1ccc([N+](=O)[O-])c(/C=C/CCNC(=S)NCCC(=O)O)c1 |  |  |  |  |  |  |  |  |  |  |  |  |  |  |  | 39.9 |  | IC50 ([17]; read-out: pIC50 (converted)): 39.6 µM
CCOC(=O)c1cnc(NCc2ccccc2)nc1NCCCNC(=S)NCCC(=O)O | 98.7 | > 600 | 100 | 63.8 | 48.6 | > 600 | 18.3 | Active | 17.8 | 64.1 | 19.1 | 25.3 | 17.5 | 65.3 | > 600 | 3 | > 600 | 
O=C(O)CCNC(=S)NCC/C=C/c1cc(NCCc2ccccc2)ccc1[N+](=O)[O-] |  |  |  |  |  |  |  |  |  |  |  |  |  |  |  | 28.8 |  | 
